Measured values published in patent US20190224166A1, “Compositions and Methods for Treating Muscle Loss” (Augusta University Research Institute, Inc., priority 2018, published 2019).
“Also recorded” adds a separate entry of the source.

Tests used:
tibialis anterior = assay: Muscle ROS by Amplex red assay in aged mice treated with 1-methyl-D-tryptophan; format: in vivo
Procedure: (§1) Female mice 22 months of age were obtained from the National Institute on Aging and treated with saline (vehicle) or 1-methyl-D-tryptophan (1-MT, Sigma, 452483, lot#MKBZ1441V) at a low dose (10 mg/kg BW) or at a high dose (100 mg/kg BW). Mice were treated daily for 4 weeks. Treatments were administered i.p. with an injection volume of 0.2 ml following IACUC approved procedures. Mice were euthanized by CO2 overdose and muscles harvested for analysis. One quadriceps muscle was snap frozen for proteomics and the other quadriceps muscle fixed in buffered formalin for paraffin embedding and trichrome staining. The tibialis anterior was placed in PBS for amplex red assay.

quadriceps muscle = assay: Proteomic analysis of quadriceps muscle of aged mice treated with 1-methyl-D-tryptophan (Table 1, TOPPGENE enrichment); format: in vivo
Procedure: as §1
The IDO inhibitor, 1-methyl-D-tryptophan, blocks kynurenine production and reduces levels of ROS in muscle.

C2C12 myoblasts = assay: ROS by Amplex red assay in C2C12 myoblasts treated with kynurenine; format: cell-based
Procedure: (§2) This example investigated the relationship between kynurenine, a circulating tryptophan metabolite which increases with age, and markers of muscle oxidative stress. C2C12 myoblasts were treated with kynurenine in a dose-dependent manner (0, 1, 10 μM) and reactive oxygen species (“ROS”) was measured using an Amplex red assay. Human myoblasts were also treated with kynurenine (100 μM) and ROS was measured. Female C57BL/6 mice 6 months of age were treated with kynurenine (10 mg/kg BW) or with saline (vehicle control) for 4 weeks. Muscle mass and fiber size were measured from the quadriceps femoris ex vivo, and ROS was measured from paraffin-embedded muscle sections using immunostaining for 4HNE.

human myoblasts = assay: ROS in human myoblasts treated with kynurenine; format: cell-based
Procedure: as §2

quadriceps femoris [1] = assay: Muscle mass and fiber size of quadriceps femoris ex vivo, mice treated with kynurenine for 4 weeks; format: in vivo, C57BL/6 mice; settings: young mice, kynurenine 10 mg/kg BW
Procedure: as §2

quadriceps femoris [2] = assay: Muscle ROS by 4HNE immunostaining of paraffin-embedded muscle sections, mice treated with kynurenine; format: in vivo, C57BL/6 mice; settings: young mice, kynurenine 10 mg/kg BW, 4 weeks, P<0.05
Procedure: as §2

[3] = aged mice, 1-methyl-D-tryptophan treatment
[4] = aged mouse muscle after 1-methyl-D-tryptophan treatment

`Cn1cc(C[C@@H](N)C(=O)O)c2ccccc21` [1-methyl-D-tryptophan, reference compound] was tested, and the “levels of ROS in muscle (Amplex red assay)” value (tibialis anterior; 1-methyl-D-tryptophan i.p. daily for 4 weeks) was “decrease”, the kynurenine production (tibialis anterior; 1-methyl-D-tryptophan treatment) was “blocks” and the “factors associated with muscle oxidative stress (proteomic analysis)” value (quadriceps muscle; [3]) was “reduced; also recorded: decreases”. For the same compound, the “levels of myosin 4 (proteomic analysis)” value (quadriceps muscle; [3]) was “increases”, the “factors associated with muscle degradation (ubiquitin ligases) and oxidative stress (TOPPGENE enrichment of downregulated proteins)” value (quadriceps muscle; [4]) was “decreased levels” and the “factors associated with muscle protein synthesis (TOPPGENE enrichment of upregulated proteins)” value (quadriceps muscle; [4]) was “increased levels”.
`Nc1ccccc1C(=O)CC(N)C(=O)O` (stereo not shown) [kynurenine] was tested, and the “reactive oxygen species (H2O2 concentration/protein concentration)” value (C2C12 myoblasts; 1 μm and 10 μm kynurenine, FIG. 1A) was “increases”, the ROS increase (C2C12 myoblasts; kynurenine at both low and high concentrations (1, 10 μM), P<0.01) was 2 fold and the ROS (human myoblasts; 100 μM kynurenine) was “increased”. For the same compound, the reactive oxygen species (human myoblasts; 10 μm kynurenine, FIG. 1B) was “increases”, the “quadriceps weight relative to body weight, reduction compared to controls” value (quadriceps femoris [1]) was 10% and the “muscle fiber size compared to controls” value (quadriceps femoris [1]; P<0.01) was “significantly lower”. For the same compound, the “ROS increase based on 4HNE staining, compared to control” value (quadriceps femoris [2]) was 20%.
